According to PMC9841532, “Exploring the Effect of Halogenation in a Series of Potent and Selective A2B Adenosine Receptor Antagonists” (Journal of Medicinal Chemistry, 2022):
Where two headings read alike, the source gives them in different places.

Key:
[1] = target: T1, A2BAR (Homo sapiens, UniProt P29275); test: Cellular impedance label-free assay (xCELLigence) in A2BAR-SNAP cells; format: cell-based; details: compound 1 μM, NECA 1 μM, 45 min, n = 4
T1 construct: expressed in transfected cells; host or cells: HEK-293 T cells permanently expressing pRK5-A2BAR^SNAP
T1 sequence (P29275 1-332): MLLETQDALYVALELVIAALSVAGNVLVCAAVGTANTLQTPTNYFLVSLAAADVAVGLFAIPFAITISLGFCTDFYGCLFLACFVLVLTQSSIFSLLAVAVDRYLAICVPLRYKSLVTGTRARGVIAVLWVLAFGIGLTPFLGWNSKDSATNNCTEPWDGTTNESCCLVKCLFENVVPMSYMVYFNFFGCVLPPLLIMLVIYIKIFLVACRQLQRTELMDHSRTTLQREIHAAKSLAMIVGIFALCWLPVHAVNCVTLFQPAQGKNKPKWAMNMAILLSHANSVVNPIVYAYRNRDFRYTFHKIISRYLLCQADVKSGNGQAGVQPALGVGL
From the text: To further evaluate the ability of 16b, 16j, 16r, and 16s to preclude A2BAR function in living cells, we took advantage of the cellular impedance label-free method, a widely accepted morphological and functional biosensor of cell status.[39] Accordingly, whole-cell NECA-mediated impedance responses of A2BAR^SNAP cells were monitored in real time in the absence or presence of 16b, 16j, 16r, and 16s.
Figure 4 Blockade of A2BAR-mediated whole-cell label-free responses. (A) Representative example of the impedance signal obtained over the time upon incubation with A2BAR ligands. […] (B) The area under the curve (AUC) derived from the normalized cell index (NCI) shown in (A) was calculated for each condition. Data are expressed as mean ± SEM (n = 4). ***P < 0.001 and **P < 0.01, one-way ANOVA with a Dunnett’s multiple-comparison test when compared to vehicle (Veh).
The xCELLigence RTCA system (Roche) was employed to assess the impact of blocking A2BAR-mediated effects in cellular impedance upon receptor activation, as previously described.[57]−[60] To this end, A2BAR^SNAP cells were growth in 16-well E-plates (Roche), using DMEM supplemented with 1 mM sodium pyruvate, 2 mM L-glutamine, 100 U/mL streptomycin, […] penicillin, and 1.5% (v/v) fetal bovine serum in the presence of 0.5 U/mL of ADA. Of note, wells were previously coated with 50 μL fibronectin (10 μg/mL; Sigma-Aldrich) and the background index for each well was determined with supplemented DMEM (90 μL) in the absence of cells. Subsequently, A2BAR^SNAP cells (90 μL) were plated at a cell density of 10,000 cells/well and grown for 18 h in the RTCA SP device station (Roche) at 37 °C in an atmosphere of 5% CO2. Then, before ligand addition, cell index values were normalized to the same time point using the RTCA software, providing the normalized cell index (NCI). After ligand stimulation, NCI was recorded every 15 s for a total time of at least 45 min. The area under the curve (AUC) for every condition was calculated using GraphPad Prism 9.

[2] = target: T2, hA2AAR (Homo sapiens, UniProt P29274); test: Radioligand binding competition, [3H]ZM241385, membranes from HeLa-A2A cells; details: 1 μM, [3H]ZM241385, human HeLa cells, n = 2
T2 construct: expressed in transfected cells; host or cells: HeLa (HeLa-A2A) cell membranes
Procedure, shortened: (§1)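 Racemates, plus selected enantiomers after chiral resolution, were tested at 25 °C, with a 60 min incubation for one subtype and 30 min for others. Non-specific binding was defined with 10 μM or 100 μM R-PIA. Bound radioactivity was counted after washing and filtration.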

[3] = target: T3, hA1AR (Homo sapiens, UniProt P30542); test: Radioligand binding competition, [3H]DPCPX, membranes from CHO-A1 cells; details: 1 μM, [3H]DPCPX, human CHO cells, n = 2
T3 sequence (P30542 1-326): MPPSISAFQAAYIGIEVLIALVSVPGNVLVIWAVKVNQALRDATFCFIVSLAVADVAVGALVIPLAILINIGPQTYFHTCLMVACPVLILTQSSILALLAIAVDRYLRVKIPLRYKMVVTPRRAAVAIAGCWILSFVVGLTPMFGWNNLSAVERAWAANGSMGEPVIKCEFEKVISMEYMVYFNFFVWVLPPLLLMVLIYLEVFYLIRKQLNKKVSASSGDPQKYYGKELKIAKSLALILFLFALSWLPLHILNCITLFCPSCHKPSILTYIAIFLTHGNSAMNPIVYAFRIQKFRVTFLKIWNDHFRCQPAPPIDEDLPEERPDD
Procedure, shortened: as §1

[4] = target: T4, hA3AR (Homo sapiens, UniProt P0DMS8); test: Radioligand binding competition, [3H]NECA, membranes from HeLa-A3 cells; details: 1 μM, [3H]NECA, human HeLa cells, n = 2
T4 construct: expressed in transfected cells; host or cells: HeLa (HeLa-A3) cell membranes
T4 sequence (P0DMS8 1-318): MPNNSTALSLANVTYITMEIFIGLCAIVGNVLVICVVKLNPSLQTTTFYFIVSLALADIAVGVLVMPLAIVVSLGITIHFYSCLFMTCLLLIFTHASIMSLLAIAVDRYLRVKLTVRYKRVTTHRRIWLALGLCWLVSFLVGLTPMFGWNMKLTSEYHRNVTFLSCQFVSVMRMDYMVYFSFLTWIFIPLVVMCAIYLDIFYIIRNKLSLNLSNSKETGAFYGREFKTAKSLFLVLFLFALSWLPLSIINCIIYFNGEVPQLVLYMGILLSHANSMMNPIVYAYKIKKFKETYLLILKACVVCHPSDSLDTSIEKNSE
Procedure, shortened: as §1

[5] = target: T5, hA2BAR (Homo sapiens, UniProt P29275); test: Radioligand binding competition, [3H]DPCPX, membranes from HEK-293-A2B cells; details: read-out: Ki hA2B
T5 construct: host or cells: HEK-293 (HEK-293-A2B) cell membranes
T5 sequence (P29275 1-332): T1 sequence (P29275 1-332)
Procedure, shortened: as §1

[6] = target: T1, A2BAR; test: cAMP accumulation assay in HEK-293 cells permanently expressing A2BAR-SNAP; format: cell-based; details: read-out: KB (hA2B)
Procedure: To assess their ability to block A2BAR agonist intrinsic activity, the effect on A2BAR-mediated cAMP accumulation and cellular impedance was evaluated. To this end, we used HEK-293 cells permanently expressing the A2BAR^SNAP construct, which can be visualized upon staining the cells with a SNAP-fluorescent substrate.
Scale bar: […]. […] Data are expressed as mean ± SEM (n = 4).
cAMP accumulation was measured using the LANCE Ultra cAMP kit (PerkinElmer, Waltham, Massachusetts, USA) as previously described.[55] […] The 384-well plate was incubated 1 h at 22 °C in the dark and was then read on a CLARIOstar Microplate Reader (BMG Labtech, Durham, North Carolina, USA). […] Data were fitted by non-linear regression using GraphPad Prism 9 (San Diego, California, USA).

T2 sequence (P29274 whole entry): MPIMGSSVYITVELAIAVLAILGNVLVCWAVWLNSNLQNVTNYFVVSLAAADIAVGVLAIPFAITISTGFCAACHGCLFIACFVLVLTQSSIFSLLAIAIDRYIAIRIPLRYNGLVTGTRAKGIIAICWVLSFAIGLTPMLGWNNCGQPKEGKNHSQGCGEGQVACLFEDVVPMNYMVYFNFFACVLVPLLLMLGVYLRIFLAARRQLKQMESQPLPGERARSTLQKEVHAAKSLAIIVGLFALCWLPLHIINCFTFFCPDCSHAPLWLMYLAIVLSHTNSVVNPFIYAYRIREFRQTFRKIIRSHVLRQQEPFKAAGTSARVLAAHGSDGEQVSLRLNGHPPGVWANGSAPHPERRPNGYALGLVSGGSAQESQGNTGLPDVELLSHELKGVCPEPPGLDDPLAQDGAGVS

Blockade of NECA-induced changes in cellular impedance (AUC of normalized cell index) [1]: significantly blocked | % at 1 μM hA2A (percentage displacement of specific binding) [2]: 37% | % at 1 μM hA1 (percentage displacement of specific binding) [3]: 1% | % at 1 μM hA3 (percentage displacement of specific binding) [4]: 25% | Ki ([5]; displacement of specific [3H]DPCPX binding in human HEK-293 cells, n = 3): 3.32 ± 0.4 nM | Ki [5]: < 10 nM | Kb [6]: 1.5 ± 0.5 nM
SMILES: CCOC(=O)C1=C(C)Nc2nc3cc(Br)ccc3n2C1c1ccoc1 (stereo not shown) [16s]
